{"source": "patent US11974990B2", "about": "“TXNIP-TRX complex inhibitors and methods of using the same” (City of Hope, priority 2018, dated 2024)", "key": {"[1]": {"molecular_target": "T1, purified TXNIP (Homo sapiens, UniProt Q9H3M7)", "T1 construct": "purchased LSBio (TXNIP); Sigma (TRX1); host or cells: E. coli (TXNIP)", "T1 sequence (Q9H3M7 1-391)": "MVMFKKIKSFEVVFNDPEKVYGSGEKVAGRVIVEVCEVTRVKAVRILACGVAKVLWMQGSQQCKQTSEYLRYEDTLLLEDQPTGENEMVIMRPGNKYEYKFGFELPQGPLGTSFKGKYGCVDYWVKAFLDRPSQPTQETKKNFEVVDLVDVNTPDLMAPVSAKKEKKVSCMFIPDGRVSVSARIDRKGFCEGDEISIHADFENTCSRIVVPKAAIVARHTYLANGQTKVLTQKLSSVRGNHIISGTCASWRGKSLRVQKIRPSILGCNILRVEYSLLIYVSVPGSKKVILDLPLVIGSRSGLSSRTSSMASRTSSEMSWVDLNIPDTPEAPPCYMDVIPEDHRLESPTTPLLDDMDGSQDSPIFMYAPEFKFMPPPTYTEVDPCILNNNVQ", "test": "DARTS assay with purified TXNIP and TRX1 proteins", "type": "binding", "conditions": "purified TXNIP + TRX1, protease, 7 minutes (FIG. 16)", "experimental": "FIG. 16. […] Purified TRX and TXNIP proteins and C1 (at the indicated concentrations) were mixed together. Protease was added. Aliquots were withdrawn at 7 minutes and loaded on 10% SDS gels. C1: compound 1; control: without protease.\nTo further confirm that C1 is able to protect TXNIP from proteolysis in the presence of TXNIP+TRX1, we performed DARTS assay using pure TXNIP protein (LSBio) and TRX1 protein (Sigma). The TRX1 protein we employed is also usually used for TRX1 activity assays. In contrast, the TXNIP protein is generated by E. coli and might not be in the active form. Therefore, we re-natured the protein prior to use in the DARTS assay."}, "[2]": {"tested_on": "TNF-α mRNA", "test": "TNF-α mRNA expression (RT-PCR) in THP1 cells under high glucose", "type": "cell-based, human", "experimental": "FIG. 8. […] High glucose induced TNF expression in THP1 cells. This HG induced TNF increase is alleviated by C1 in dose manner (1.25, 2.5 and 5 uM). Results shown are means±SE of triplet real-time PCRs. *:P=0.002 vs. HG only, by t tests; **:P=0.001 vs. HG only, by t tests.\nFIGS. 9A-9B. FIG. 9A. […] THP1 cells were cultured in 25 mM glucose with the indicated concentrations of C1 for 72 h. Cell were collected for total RNA preparation. RT-PCR were performed and data shown are the mean+SEM from triplicates. Statistical analysis was performed using one-way ANOVA, *<0.0001. FIG. 9B. […] THP1 cells were cultured in 25 mM glucose and C1 (uM) as indicated for 72 hours and collected for total RNA preparation. RT-PCR was performed. Data shown are the mean+SEM from triplicates. Statistical analysis was performed using one-way ANOVA: *<0.02; **<0.0001.\nRNA extraction and quantitative RT-PCR. RNA was extracted using the Direct-zol™ RNA MiniPrep Plus (Zymo Research). […] Diluted cDNA was quantified using real-time PCR performed with Power SYBR Green qPCR MasterMix (Applied Biosystem) and 7500 real-time PCR system (Applied Biosystems). […]\nRNA extraction and quantitative RT-PCR. […] Diluted cDNA was quantified using real-time PCR performed with Power SYBR Green qPCR MasterMix (Applied Biosystem) and 7500 real-time PCR system (Applied Biosystems). […]"}, "[3]": {"tested_on": "TXNIP mRNA", "test": "TXNIP mRNA expression (RT-PCR) in primary human pancreatic islets", "type": "cell-based", "conditions": "human pancreatic islets (500 IEQ), 25 mM glucose, 48 h (FIG. 18)", "experimental": "FIG. 18. […] Human pancreatic islets (500 IEQ) were cultured with PIM(R) (Prodo Labs) in 25 mM glucose with C1 as indicated for 48 h. Total RNA was collected. RT-PCR was performed in triplicate and data shown are the mean+SEM. Statistical analysis was performed using one-way ANOVA: *<0.0001.\nRNA extraction and quantitative RT-PCR. RNA was extracted using the Direct-zol™ RNA MiniPrep Plus (Zymo Research). Reverse transcription of RNA samples into cDNA was performed using the GeneAmp RNA PCR Kit (Applied Biosystems), dNTP (from Roche Applied Science), Rnase inhibitor, MULV Reverse Transcriptase and Random hexamers reagent (all from Invitrogen). Diluted cDNA was quantified using real-time PCR performed with Power SYBR Green qPCR MasterMix (Applied Biosystem) and 7500 real-time PCR system (Applied Biosystems). The HPRT1 gene was used as an internal control."}}, "note": "Entries after “also recorded” stand apart in the source; their conditions may differ.", "data": [{"compound": "CC(C)C(C(=O)O)N1C(=O)c2ccncc2C1=O", "note": "(stereo not shown) [Compound C1, 2-(1,3-dioxo-1,3-dihydro-2H-pyrrolo[3,4-c]pyridin-2-yl)-3-methylbutanoic acid]", "values": [{"measurement": "protection of purified TXNIP from proteolysis", "setting": "[1]", "result": "protects purified TXNIP from proteolysis"}, {"measurement": "TNF-α mRNA expression", "setting": "[2]; THP1, 25 mM glucose, concentration range of C1, 72 h (FIG. 9B)", "result": "inhibits TNF-α mRNA expression; also recorded: lower levels of TNF-α mRNA"}, {"measurement": "HG-induced TNF expression", "setting": "[2]; THP1, high glucose, C1 1.25, 2.5 and 5 uM (FIG. 8)", "result": "attenuate high glucose induced expression of inflammatory cytokine molecules"}, {"measurement": "TXNIP mRNA", "setting": "[3]", "result": "targets TXNIP mRNA; also recorded: efficiently inhibited TXNIP mRNA"}]}]}
